# In patent publication US11760773B2, “Small molecule drug conjugates of gemcitabine monophosphate” (MaveriX Oncology, Inc., priority 2018, dated 2023):
# Counter-ions that a name gives are not always drawn. Like-named read-outs stand apart in the source and are kept apart here.
# Legend:
# UT-SCC-5 = assay: Tumor cell proliferation (alamarBlue) cytotoxicity assay, UT-SCC-5; format: cell-based, human
# Protocol: (§1) A tumor cell proliferation assay was used to determine cytotoxicity IC50 values for the phosphate prodrug Compounds 1-9, the parent non-phosphorylated SMDC parent compounds, and the effector (gemcitabine) across eight primary early-passage human head and neck squamous cell carcinoma cell lines including UT-SCC-5, UT-SCC-8, UT-SCC-9, UT-SCC-10, UT-SCC-14, UT-SCC-16A, UT-SCC-16B, and UT-SCC-24A.
# (§2) UTSCC cells were seeded at 4000 cells/100 I/well on 96-well black clear-bottom tissue culture plate. Cells were incubated at 37° C. and 5% CO2 overnight to allow them to recover and re-attach. The next day cells were treated with the test compound (0-100 μM) for 72 hours. After treatment, cell proliferation was measured by Fluorescent quantitation of alamarBlue reagent. The alamarBlue assay incorporates a fluorometric/colorimetric growth indicator based on detection of metabolic activity. Specifically, resazurin, the active ingredient of alamarBlue reagent, is blue in color and virtually non-fluorescent. Upon entering cells, resazurin is reduced to resorufin, a compound that is red in color and highly fluorescent.
# (§3) Continued cell growth maintains a reduced environment, therefore increasing the overall fluorescence and color of the media surrounding cells. The fluorescence intensity of alamarBlue reagent was directly proportional to cell number. To perform the alamarBlue assay, 10 I of alamarBlue reagent was added to each well and the plate was incubated at 37° C. for an additional 2 hour. Fluorescence intensity was measured at an excitation of 530 nm and an emission of 590 nm using a BioTek Synergy™ 2 microplate reader.
# (§4) Cell proliferation assays in triplicate were performed at each concentration. The fluorescent intensity data were analyzed using the computer software, Graphpad Prism. In the absence of the compound, the fluorescent intensity (Ft) in each data set was defined as 100%. In the absence of cells, the fluorescent intensity (Fb) in each data set was defined as 0%. The percent cell in the presence of each compound was calculated according to the following equation: % cell=(F−Fb)/(Ft−Fb), where F=the fluorescent intensity in the presence of the compound, Fb=the fluorescent intensity in the absence of cells, and Ft=the fluorescent intensity in the absence of the compound. The values of % cell versus a series of compound concentrations were then plotted using non-linear regression analysis of Sigmoidal dose-response curve generated with the equation Y=B+(T−B)/1+10^((Log EC50-X)×Hill Slope) where Y=percent cell, B=minimum percent cell, T=maximum percent cell, X=logarithm of compound and Hill Slope=slope factor or Hill coefficient. The IC50 value was determined by the concentration causing a half-maximal percent activity.
# UT-SCC-8 = assay: Tumor cell proliferation (alamarBlue) cytotoxicity assay, UT-SCC-8; format: cell-based, human
# Protocol: as §1, §2, §3, §4
# UT-SCC-9 = assay: Tumor cell proliferation (alamarBlue) cytotoxicity assay, UT-SCC-9; format: cell-based, human
# Protocol: as §1, §2, §3, §4
# UT-SCC-10 = assay: Tumor cell proliferation (alamarBlue) cytotoxicity assay, UT-SCC-10; format: cell-based, human
# Protocol: as §1, §2, §3, §4
# UT-SCC-14 = assay: Tumor cell proliferation (alamarBlue) cytotoxicity assay, UT-SCC-14; format: cell-based, human
# Protocol: as §1, §2, §3, §4
# UT-SCC-16A = assay: Tumor cell proliferation (alamarBlue) cytotoxicity assay, UT-SCC-16A; format: cell-based, human
# Protocol: as §1, §2, §3, §4
# UT-SCC-16B = assay: Tumor cell proliferation (alamarBlue) cytotoxicity assay, UT-SCC-16B; format: cell-based, human
# Protocol: as §1, §2, §3, §4
# UT-SCC-24A = assay: Tumor cell proliferation (alamarBlue) cytotoxicity assay, UT-SCC-24A; format: cell-based, human
# Protocol: as §1, §2, §3, §4
# [1] = system: primary head and neck squamous cell carcinoma cell lines; assay: Cytotoxicity, average over the eight UT-SCC cell lines; format: cell-based, human
# Protocol: as §1
# UTSCC cells were seeded at 4000 cells/100 I/well on 96-well black clear-bottom tissue culture plate. Cells were incubated at 37° C. and 5% CO2 overnight to allow them to recover and re-attach. The next day cells were treated with the test compound (0-100 μM) for 72 hours. After treatment, cell proliferation was measured by Fluorescent quantitation of alamarBlue reagent. […]
# Continued cell growth maintains a reduced environment, therefore increasing the overall fluorescence and color of the media surrounding cells. The fluorescence intensity of alamarBlue reagent was directly proportional to cell number. […] Fluorescence intensity was measured at an excitation of 530 nm and an emission of 590 nm using a BioTek Synergy™ 2 microplate reader.
# Cell proliferation assays in triplicate were performed at each concentration. The fluorescent intensity data were analyzed using the computer software, Graphpad Prism. […] The IC50 value was determined by the concentration causing a half-maximal percent activity.
# Solubility / formulation = format: physicochemical; details: water; read-out: soluble in water
# [2] = Comparative plasma PK of Compound 1 versus Int 1-4 in male CD-1 mice (study b); format: in vivo; details: male, CD-1, mouse, iv; for AUC(0-inf): read-out: AUC0-inf; for MRT inf: read-out: MRT0-inf; for MRT last: read-out: MRT0-last; for Vd: read-out: Vdss
# Protocol: Objectives: to compare the plasma pharmacokinetics and stability of Compound 1 with its non-phosphorylated SMDC analog (Int 1-4) and in plasma following a single intravenous infusion administration of Compound 1 at 11.6 mg/kg and 23.2 mg/kg with Int 1-4 (formulation F1 & F2) at 10.0 mg/kg in male CD-1 mice
# PK measurements: compare PK parameters C0, CL, Vdss, Cmax, tmax, t1/2, AUC(0-t), AUC(0-inf), MRT(0-t), MRT(0-inf) for Compound 1 and Int 1-4
# [3] = Compound 1 and gemcitabine plasma PK in the male cynomolgus monkey (study h); format: in vivo
# Protocol: Objectives: to compare the plasma pharmacokinetics and stability of the Compound 1 with Int 1-4 and in plasma following a single intravenous infusion administration of Compound 1 at 5 mg/kg and 10 mg/kg with equimolar gemcitabine at 2.28 mg/kg in male cynomolgous monkeys.
# PK measurements: compare PK parameters C0, CL, Vdss, Cmax, tmax, t1/2, AUC(0-t), AUC(0-inf), MRT(0-t), MRT(0-inf) for Compound 1 and Int 1-4 with gemcitabine.
# [4] = Mouse plasma stability (Compound 1); format: in vitro ADME
# [5] = Homo sapiens, 72 hours treatment
# [6] = 11.6 mg/kg, after iv Compound 1 11.6 mg/kg
# [7] = 23.2 mg/kg, after iv Compound 1 23.2 mg/kg
# [8] = plasma, after iv Compound 1 5 mg/kg
smiles,measurement,setting,value
"COc1cc(OC)c2oc(COC(=O)Nc3ccn([C@@H]4O[C@H](COP(=O)(O)O)[C@@H](O)C4(F)F)c(=O)n3)cc2c1 [Compound 1, ((2R,3R,5R)-5-(4-((((5,7-dimethoxybenzofuran-2-yl)methoxy)carbonyl)-amino)-2-oxopyrimidin-1(2H)-yl)-4,4-difluoro-3-hydroxytetrahydrofuran-2-yl)methyl hydrogen phosphate triethyl ammonium salt]",IC50,"UT-SCC-5; Homo sapiens, UT-SCC-5, 72 hours treatment",0.024 µM
same,Cytotoxicity IC50 ratio Compound 1/Int 1-4,UT-SCC-5; UT-SCC-5,1.5
same,Cytotoxicity IC50 ratio Compound 1/gemcitabine,UT-SCC-5; UT-SCC-5,2.7
same,IC50,"UT-SCC-8; Homo sapiens, UT-SCC-8, 72 hours treatment",0.023 µM
same,Cytotoxicity IC50 ratio Compound 1/Int 1-4,UT-SCC-8; UT-SCC-8,0.7
same,Cytotoxicity IC50 ratio Compound 1/gemcitabine,UT-SCC-8; UT-SCC-8,1.0
same,IC50,"UT-SCC-9; Homo sapiens, UT-SCC-9, 72 hours treatment",0.053 µM
same,Cytotoxicity IC50 ratio Compound 1/Int 1-4,UT-SCC-9; UT-SCC-9,1.4
same,Cytotoxicity IC50 ratio Compound 1/gemcitabine,UT-SCC-9; UT-SCC-9,1.5
same,IC50,"UT-SCC-10; Homo sapiens, UT-SCC-10, 72 hours treatment",0.014 µM
same,Cytotoxicity IC50 ratio Compound 1/Int 1-4,UT-SCC-10; UT-SCC-10,1.6
same,Cytotoxicity IC50 ratio Compound 1/gemcitabine,UT-SCC-10; UT-SCC-10,1.6
same,IC50,"UT-SCC-14; Homo sapiens, UT-SCC-14, 72 hours treatment",0.013 µM
same,Cytotoxicity IC50 ratio Compound 1/Int 1-4,UT-SCC-14; UT-SCC-14,1.0
same,Cytotoxicity IC50 ratio Compound 1/gemcitabine,UT-SCC-14; UT-SCC-14,2.2
same,Cytotoxicity IC50 ratio Compound 1/Int 1-4,UT-SCC-16A,0.5
same,Cytotoxicity IC50 ratio Compound 1/gemcitabine,UT-SCC-16A,1.2
same,IC50,UT-SCC-16A; [5],0.073 µM
same,Cytotoxicity IC50 ratio Compound 1/Int 1-4,UT-SCC-16B,0.8
same,Cytotoxicity IC50 ratio Compound 1/gemcitabine,UT-SCC-16B,1.3
same,IC50,UT-SCC-16B; [5],0.13 µM
same,Cytotoxicity IC50 ratio Compound 1/Int 1-4,UT-SCC-24A,0.9
same,Cytotoxicity IC50 ratio Compound 1/gemcitabine,UT-SCC-24A,1.3
same,IC50,UT-SCC-24A; [5],0.018 µM
same,average ratio of cytotoxicity IC50 values Compound 1/Int 1-4,[1],~1
same,average ratio of cytotoxicity IC50 values Compound 1/gemcitabine,[1],~1.6
same,solubility,Solubility / formulation,> 300 mg/mL
same,AUC(0-t),[2]; [6],0.202 µg·h/mL
same,C0,[2]; [6],21.9 µg/mL
same,clearance,[2]; [6],118 L/h/kg
same,half-life,[2]; [6],52.9 s
same,AUC(0-inf),[2]; [6],0.202 µg·h/mL
same,MRT inf,[2]; [6],39.2 s
same,MRT last,[2]; [6],38.9 s
same,Vd,[2]; [6],1.41 L/kg
same,AUC(0-t),[2]; [7],0.103 µg·h/mL
same,C0,[2]; [7],2.33 µg/mL
same,clearance,[2]; [7],312 L/h/kg
same,half-life,[2]; [7],131 s
same,AUC(0-inf),[2]; [7],0.105 µg·h/mL
same,MRT inf,[2]; [7],164 s
same,MRT last,[2]; [7],153 s
same,Vd,[2]; [7],12 L/kg
same,VDss fold lower than Int 1-4,[3],10 fold
same,AUC(0-t),[3]; [8],1.83 µg·h/mL
same,C0,[3]; [8],139 µg/mL
same,clearance,[3]; [8],2.79 L/h/kg
same,half-life,[3]; [8],36 s
same,MRT inf,"[3]; plasma, after iv Compound 1 5 mg/kg, read-out: MRT0-inf",36 s
same,MRT last,"[3]; plasma, after iv Compound 1 5 mg/kg, read-out: MRT0-last",36 s
same,Vd,"[3]; plasma, after iv Compound 1 5 mg/kg, read-out: Vdss",0.0357 L/kg
same,stability in mouse plasma,[4],stable
same,Slope Mean ± SE,"[4]; 3 μM, 37° C.",0.00413 ± 0.000752
